Laboratory results: article PMC6225322, “Development of Kinase Inhibitors via Metal-Catalyzed C–H Arylation of 8-Alkyl-thiazolo[5,4-f]-quinazolin-9-ones Designed by Fragment-Growing Studies” (Molecules : A Journal of Synthetic Chemistry and Natural …, 2018)

Legend:
CDK5/p25 = target: T1, CDK5/p25 (Homo sapiens, UniProt Q00535); test: CDK5/p25 in vitro kinase assay (33P-ATP, histone H1); assay type: biochemical
T1 construct: made in house
Experimental: CDK5/p25 (Human, recombinant) was prepared as previously described [37]. Its kinase activity was assayed in buffer A, with 1 mg of histone H1/mL, in the presence of 15 μM [γ-^33P] ATP (3000 Ci/mmol; 10 mCi/mL) in a final volume of 30 μL. After 30 min incubation at 30 °C, 25 μL aliquots of supernatant were spotted onto sheets of Whatman P81 phosphocellulose paper, and 20 s later, the filters were washed eight times (for at least 5 min each time) in a solution of 10 mL phosphoric acid/L of water. The wet filters were counted in the presence of 1 mL ACS (Amersham) scintillation fluid.

GSK-3α/β = GSK-3α/β in vitro kinase assay (GS-1 peptide); assay type: biochemical, porcine; settings: Table 4; ATP 15 μM, triplicate; <50% inhibition at 10 μM = IC50 >10 μM
Experimental: (§1) Products of series 2a–j, 3a–c, 4a–f, 9a–i, and 10 were evaluated in five different in vitro kinase assays: CDK5/p25, CK1δ/ε (casein kinase 1), GSK-3α/β, DYRK1A (dual-specificity, tyrosine phosphorylation regulated kinase), and CLK1 [37, 38, 39].
(§2) Controls were performed with appropriate dilutions of dimethyl sulfoxide (DMSO).
GSK-3α/β (porcine brain, native) was assayed, in buffer A, with 0.5 mg BSA/mL + 1 mM DTT, using GS-1 ([…]pEDEEE) (pS stands for phosphorylated serine), a GSK-3 specific substrate, in the presence of 15 μmol/L [γ-^33P] ATP (3000 Ci/mmol; 10 mCi/mL) in a final volume of 30 μL. After 30 min incubation at 30 °C, the reaction was stopped by harvesting onto P81 phosphocellulose […] (Whatman, Dutscher SAS, Brumath, France) using a FilterMate harvester (PerkinElmer, Courtaboeuf, France), and were washed in 1% phosphoric acid. Scintillation fluid was added, and the radioactivity measured in a Packard counter.

CLK1 = CLK1 (Homo sapiens, UniProt P49759); test: CLK1 in vitro kinase assay (RS peptide); assay type: biochemical
CLK1, sequence (P49759 whole entry): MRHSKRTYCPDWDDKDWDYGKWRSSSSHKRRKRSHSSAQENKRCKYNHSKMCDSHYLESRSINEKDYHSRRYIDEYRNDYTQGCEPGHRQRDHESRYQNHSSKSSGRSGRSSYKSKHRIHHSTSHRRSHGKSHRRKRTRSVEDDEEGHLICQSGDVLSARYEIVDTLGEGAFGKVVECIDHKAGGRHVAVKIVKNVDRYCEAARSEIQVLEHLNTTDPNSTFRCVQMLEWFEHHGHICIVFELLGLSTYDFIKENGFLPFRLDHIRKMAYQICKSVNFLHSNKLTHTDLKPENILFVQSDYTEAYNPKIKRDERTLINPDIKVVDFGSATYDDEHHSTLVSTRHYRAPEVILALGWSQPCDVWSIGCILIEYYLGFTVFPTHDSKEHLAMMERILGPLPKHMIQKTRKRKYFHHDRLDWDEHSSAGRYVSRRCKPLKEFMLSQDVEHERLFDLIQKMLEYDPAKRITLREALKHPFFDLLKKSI

CK1δ/ε = CK1δ/ε in vitro kinase assay (CKS peptide); assay type: biochemical, porcine; settings: Table 4; ATP 15 μM, triplicate; <50% inhibition at 10 μM = IC50 >10 μM
Experimental: as §1, §2
CK1δ/ε (porcine brain, native) was assayed as described for CDK1, but in buffer B, and using 25 μM CKS peptide ([…]pSAYSITA), a CK1-specific substrate.

DYRK1A = DYRK1A (Homo sapiens, UniProt Q13627); test: DYRK1A in vitro kinase assay (Woodtide); assay type: biochemical
Experimental: as §1, §2

T1 sequence (Q00535 whole entry): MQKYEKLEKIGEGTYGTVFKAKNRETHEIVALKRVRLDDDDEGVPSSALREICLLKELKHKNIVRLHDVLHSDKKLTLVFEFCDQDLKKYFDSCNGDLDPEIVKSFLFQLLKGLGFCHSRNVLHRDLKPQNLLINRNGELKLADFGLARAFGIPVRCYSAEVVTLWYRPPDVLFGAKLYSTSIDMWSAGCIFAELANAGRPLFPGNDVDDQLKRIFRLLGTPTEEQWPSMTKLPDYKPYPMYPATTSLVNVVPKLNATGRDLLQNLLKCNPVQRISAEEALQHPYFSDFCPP
T1 sequence (Q15078 99-307 partner limits assumed): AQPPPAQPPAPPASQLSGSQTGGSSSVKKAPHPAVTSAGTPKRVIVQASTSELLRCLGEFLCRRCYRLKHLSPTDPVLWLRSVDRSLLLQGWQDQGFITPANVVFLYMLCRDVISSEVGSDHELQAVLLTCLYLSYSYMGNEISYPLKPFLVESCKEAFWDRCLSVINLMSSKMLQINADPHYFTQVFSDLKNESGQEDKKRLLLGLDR

Structure (SMILES): O=c1c2c(ccc3nc(-c4cccnc4)sc32)ncn1Cc1ccccc1 [3a]
- IC50 (CDK5/p25): > 10 µM
- IC50 (GSK-3α/β): 3.7 µM
- IC50 (CLK1): 2 µM
- IC50 (CK1δ/ε): > 10 µM
- IC50 (DYRK1A): 0.012 µM

Structure (SMILES): O=c1c2c(ccc3nc(-c4cccnc4)sc32)ncn1C1CCCC1 [4e, 8-Cyclopentyl-2-(pyridin-3-yl)thiazolo[5,4-f]quinazolin-9(8H)-one]
- IC50 (GSK-3α/β): > 10 µM
- IC50 (CLK1): > 10 µM
- IC50 (CK1δ/ε): > 10 µM
- IC50 (DYRK1A): > 10 µM

Structure (SMILES): Cn1cnc2ccc3nc(-c4cccnc4)sc3c2c1=O [4a, 8-Methyl-2-(pyridin-3-yl)thiazolo[5,4-f]quinazolin-9(8H)-one]
- IC50 (GSK-3α/β): > 10 µM
- IC50 (CLK1): > 10 µM
- IC50 (CK1δ/ε): > 10 µM
- IC50 (DYRK1A): > 10 µM

Structure (SMILES): O=c1c2c(ccc3nc(-c4cccnc4)sc32)ncn1C1CC1 [4c, 8-Cyclopropyl-2-(pyridin-3-yl)thiazolo[5,4-f]quinazolin-9(8H)-one]
- IC50 (GSK-3α/β): 0.068 µM
- IC50 (CLK1): 0.018 µM
- IC50 (CK1δ/ε): 6 µM
- IC50 (DYRK1A): 0.011 µM

Structure (SMILES): O=c1c2c(ccc3nc(-c4cccnc4)sc32)ncn1C1CCC1 [4d, 8-Cyclobutyl-2-(pyridin-3-yl)thiazolo[5,4-f]quinazolin-9(8H)-one]
- IC50 (GSK-3α/β): > 10 µM
- IC50 (CLK1): > 10 µM
- IC50 (CK1δ/ε): > 10 µM
- IC50 (DYRK1A): > 10 µM

Structure (SMILES): COc1ccc2c(c1)[nH]c1c(C)nccc12 [Harmine, reference compound]
- IC50 (GSK-3α/β): > 10 µM
- IC50 (CK1δ/ε): 1.5 µM

Structure (SMILES): O=c1c2c(ccc3nc(-c4cnccn4)sc32)ncn1Cc1ccccc1 [3b]
- IC50 (CDK5/p25): > 10 µM
- IC50 (GSK-3α/β): 6 µM
- IC50 (CLK1): 3.33 µM
- IC50 (CK1δ/ε): > 10 µM
- IC50 (DYRK1A): 0.133 µM

Structure (SMILES): COc1ncccc1-c1nc2ccc3ncn(C4CC4)c(=O)c3c2s1 [compound 10]
- IC50 (CDK5/p25): > 10 µM
- IC50 (GSK-3α/β): ≥ 10 µM
- IC50 (CLK1): > 10 µM
- IC50 (CK1δ/ε): > 10 µM
- IC50 (DYRK1A): > 10 µM
- DYRK inhibitory activity (in words) (DYRK1A; SAR discussion): inactive

Structure (SMILES): CC(C)n1cnc2ccc3nc(-c4cccnc4)sc3c2c1=O [4b, 8-Isopropyl-2-(pyridin-3-yl)thiazolo[5,4-f]quinazolin-9(8H)-one]
- IC50 (GSK-3α/β): > 10 µM
- IC50 (CLK1): > 10 µM
- IC50 (CK1δ/ε): > 10 µM
- IC50 (DYRK1A): > 10 µM

Structure (SMILES): O=c1c2c(ccc3nc(-c4cccnc4)sc32)ncn1C1CCCCC1 [4f, 8-Cyclohexyl-2-(pyridin-3-yl)thiazolo[5,4-f]quinazolin-9(8H)-one]
- IC50 (GSK-3α/β): > 10 µM
- IC50 (CLK1): > 10 µM
- IC50 (CK1δ/ε): > 10 µM
- IC50 (DYRK1A): > 10 µM
